Source: paper PMC5975062 (Alzheimer's & Dementia : Translational Research & Clinical …, 2015)
“Also recorded” adds a separate entry of the source.

Key:
[1] = Phase 1 plasma pharmacokinetics after single and multiple oral doses; assay type: in vivo, human; details: for AUC(0-t) / half-life / Tmax: human, plasma, oral; for AUC(0-t): plasma AUC0–12 h
[2] = Phase 1 CSF pharmacokinetics; assay type: in vivo, human; details: for concentration at 12 h: Min (C 12 h)
QC activity in CSF = QC activity in CSF (Homo sapiens, UniProt Q16769); details: after single and multiple doses
[3] = 50 mg bid solution, fasted, nonelderly, day 11, geo mean (CV%)

Sequence of QC activity in CSF (Q16769 29-361): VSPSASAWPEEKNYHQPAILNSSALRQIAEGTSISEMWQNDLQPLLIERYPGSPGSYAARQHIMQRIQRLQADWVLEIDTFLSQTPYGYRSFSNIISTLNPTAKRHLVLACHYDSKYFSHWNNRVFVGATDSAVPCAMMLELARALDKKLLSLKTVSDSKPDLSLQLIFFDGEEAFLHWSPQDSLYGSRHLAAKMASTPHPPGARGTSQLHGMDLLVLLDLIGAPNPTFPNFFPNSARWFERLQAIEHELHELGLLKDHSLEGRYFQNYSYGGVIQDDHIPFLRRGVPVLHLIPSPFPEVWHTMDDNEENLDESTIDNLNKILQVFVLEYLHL

AUC(0-t) ([1]; 100 mg, 100 mg bid solution, fed, nonelderly, day 11, geo mean (CV%)): 969 ng·h/mL | half-life ([1]; 100 mg, plasma t1/2 (apparent terminal), 100 mg bid solution, fed, nonelderly, day 11, geo mean (CV%)): 3.46 h | half-life ([1]; 100 mg, plasma t1/2,eff (2–12 h postdose), 100 mg bid solution, fed, nonelderly, day 11, geo mean (CV%)): 2.44 h | Tmax ([1]; 100 mg, plasma tmax, 100 mg bid solution, fed, nonelderly, day 11, median (min–max)): 0.75 h | AUC(0-t) ([1]; 200 mg, 200 mg bid capsule, fasted, elderly, day 7, geo mean (CV%)): 3890 ng·h/mL | half-life ([1]; 200 mg, plasma t1/2 (apparent terminal), 200 mg bid capsule, fasted, elderly, day 7, geo mean (CV%)): 7.55 h | half-life ([1]; 200 mg, plasma t1/2,eff (2–12 h postdose), 200 mg bid capsule, fasted, elderly, day 7, geo mean (CV%)): 3.08 h | Tmax ([1]; 200 mg, plasma tmax, 200 mg bid capsule, fasted, elderly, day 7, median (min–max)): 1 h | AUC(0-t) ([1]; 500 mg, 500 mg bid capsule, fed, nonelderly, day 11, geo mean (CV%)): 9300 ng·h/mL | half-life ([1]; 500 mg, plasma t1/2 (apparent terminal), 500 mg bid capsule, fed, nonelderly, day 11, geo mean (CV%)): 6.82 h | half-life ([1]; 500 mg, plasma t1/2,eff (2–12 h postdose), 500 mg bid capsule, fed, nonelderly, day 11, geo mean (CV%)): 3.01 h | Tmax ([1]; 500 mg, plasma tmax, 500 mg bid capsule, fed, nonelderly, day 11, median (min–max)): 3 h | Tmax ([1]; mean plasma tmax, single 10–400 mg solution, fasted): 0.5 h | half-life ([1]; plasma t1/2,eff, after bid doses): 2 to 3 h | Tmax ([1]; plasma tmax, generally observed, all formulations and doses): 0.5 to 1.5 h | Tmax ([1]; plasma tmax, repeated dosing, compared with CSF): 0.5 to 1 h | half-life ([1]; terminal plasma t1/2, single doses, across dose range): 2 to 8 h | time to steady-state ([1]; multiple bid dosing, morning trough plasma concentrations): ≤ 2 days | plasma trough (12 hours postdose) lower than peak levels ([1]; repeated bid dosing ≥50 mg, steady state): up to 61 fold | increase in AUC with ninefold increase in dose ([1]; single doses 200–1800 mg): 24 fold | CSF AUC(0–12 h) ([2]; 20 mg bid solution, fasted, nonelderly, day 11, estimated as plasma AUC × 0.05): 6 ng·h/mL | CSF concentration, Max (C 3 h) ([2]; 20 mg bid solution, fasted, nonelderly, day 11, estimated, mean × 1.6): 0.8 ng/mL | CSF AUC(0–12 h) [2, 3]: 17.3 (34.8) ng.h/mL | CSF concentration, Max (C 3 h) [2, 3]: 2.32 (34.5) ng/mL | CSF AUC(0–12 h) ([2]; 100 mg bid solution, fed, nonelderly, day 11, geo mean (CV%)): 44.7 (27.2) ng.h/mL | CSF AUC(0–12 h) ([2]; 200 mg bid capsule, fasted, elderly, day 7, estimated as plasma AUC × 0.05): 195 ng·h/mL | CSF concentration, Max (C 3 h) ([2]; 200 mg bid capsule, fasted, elderly, day 7, estimated, mean × 1.6): 25.9 ng/mL | CSF AUC(0–12 h) ([2]; 200 mg bid solution, fasted, nonelderly, day 11, estimated as plasma AUC × 0.05): 91.7 ng·h/mL | CSF concentration, Max (C 3 h) ([2]; 300 mg bid capsule, fasted, elderly, day 7, estimated, mean × 1.6): 37.7 ng/mL | CSF AUC(0–12 h) ([2]; 300 mg bid capsule, fasted, elderly, day 7, geo mean (CV%)): 275 (40.7) ng.h/mL | CSF AUC(0–12 h) ([2]; 400 mg bid capsule, fasted, nonelderly, day 11, geo mean (CV%)): 236 (25.0) ng.h/mL | CSF concentration, Max (C 3 h) ([2]; 500 mg bid capsule, fed, nonelderly, day 11, estimated, mean × 1.6): 62.0 ng/mL | CSF concentration, Max (C 3 h) ([2]; 500 mg bid tablet, fasted, elderly, day 11, estimated, mean × 1.6): 79.0 ng/mL | CSF AUC(0–12 h) ([2]; 500 mg bid tablet, fasted, elderly, day 11, geo mean (CV%)): 530 (36.6) ng.h/mL | CSF AUC(0–12 h) ([2]; 800 mg bid tablet, fasted, elderly, day 11, estimated as plasma AUC × 0.05): 1230 ng·h/mL | CSF concentration, Max (C 3 h) ([2]; 800 mg bid tablet, fasted, elderly, day 11, estimated, mean × 1.6): 163.7 ng/mL | concentration at 3 h ([2]; human, CSF, oral, 100 mg, CSF concentration, Max (C 3 h), 100 mg bid solution, fed, nonelderly, day 11, geo mean (CV%)): 6.02 ng/mL | concentration at 12 h ([2]; human, CSF, oral, 100 mg, CSF concentration, 100 mg bid solution, fed, nonelderly, day 11, geo mean (CV%)): 1.92 ng/mL | half-life ([2]; human, CSF, oral, 100 mg, CSF t1/2, 100 mg bid solution, fed, nonelderly, day 11, geo mean (CV%)): 6.38 h | concentration at 12 h ([2]; human, CSF, oral, 200 mg, CSF concentration, 200 mg bid capsule, fasted, elderly, day 7, estimated, mean × 0.53): 8.6 ng/mL | concentration at 12 h ([2]; human, CSF, oral, 500 mg, CSF concentration, 500 mg bid capsule, fed, nonelderly, day 11, estimated, mean × 0.53): 20.5 ng/mL | CSF trough lower than peak levels ([2]; repeated bid dosing ≥50 mg): approximately threefold lower | time of highest concentrations in the CSF ([2]; single oral solution, CSF sampling 1, 1.5 and 3 hours): 3 h
SMILES: CCCOc1ccc([C@H]2CNC(=O)N2c2ccc3[nH]cnc3c2)cc1 [PQ912]
QC activity in CSF (QC activity in CSF): inhibited in a dose-related manner; also recorded: decreased in a dose-related manner
